Measurements taken from patent US9079964B2, “Immunoassay for cyclopropylindole based synthetic cannabinoids, metabolites and derivatives thereof” (Randox Laboratories Limited, priority 2013, dated 2015).

Tests used:
[1] = test system: antiserum raised to Immunogen I; experiment: UR144/XLR11 Synthetic Cannabinoids (Spice) ELISA, antiserum raised to Immunogen I (third bleed); assay type: binding, sheep; details: for Concentration of compounds that elicit a negative response: Table 4, negative response at this concentration; for % Cross-Reactivity: Table 4, relative to UR144 N-Pentanoic Acid = 100
Description: (§1) The wells of an enhanced binding 96 well polystyrene microtiter plate were coated with IgG fraction of antiserum raised to Immunogen I or II, diluted in 10 mM Tris, pH 8.5 (125 μl/well). The appropriate antibody coating dilution was determined using standard ELISA checkerboard techniques. The plate was incubated overnight at 4° C., washed 4 times over 10 minutes with Tris buffered saline containing Tween20 (TBST) and tapped dry. Standard solutions (UR-144 N-pentanoic acid) were applied at 0, 0.625, 1.25, 2.5, 5, 10, 20 and 40 ng/ml and 50 μl of each was added to the appropriate wells. 75 μl of conjugate (appropriate hapten-HRP) diluted in Tris buffer (pH 7.2) containing EDTA, D-mannitol, sucrose, thimerosol and BSA, was added to each of the wells. The appropriate dilution of conjugate was also determined using standard ELISA checkerboard techniques. The plate was incubated at 25° C. for 1 hour. Excess unbound conjugate was removed by washing 6 times over a ten minute period with TBST. 125 μl of tetramethylbenzidine (TMB) substrate solution was added to each well of the plate that was then incubated for 20 minutes in the dark at room temperature. The reaction was terminated by addition of 125 μl of 0.2 M H2SO4 to each well. The absorbance was then measured at 450 nm using a microtiter plate reader. The data are inputted to a computer program called ‘KC Junior’ (Biotek). It gives a 4 parameter fit curve and allows the calculation of concentrations between the standard runs. This program is used to calculate the IC50 values by dividing the 0 ng/ml optical density (OD) value by 2 and obtaining the concentration value from the curve for this OD.
(§2) Cross-reactivity was calculated according to the following formula: % CR=IC50, UR-144 N-pentanoic acid/IC50, cross reactant×100 Where % CR is the percentage cross-reactivity, IC50, UR-144 N-pentanoic acid is the concentration of UR-144 N-pentanoic acid that causes 50% displacement of signal and IC50, cross reactant is the concentration of the cannabinoid/metabolite/selected molecule that causes 50% displacement of signal.
A further assay was carried out in accordance with the protocol described in Example 9 using Immunogen I.

[2] = test system: antiserum raised to Immunogen I; experiment: Competitive ELISA with IgG fraction of antiserum raised to Immunogen I (second bleed) and hapten 1-HRP detecting agent; assay type: binding, sheep
Description: as §1, §2
In order to determine the specificity of the competitive ELISAs, standard solutions of a range of structurally related synthetic cannabinoids and their metabolites were prepared in TBST (Tris-Buffered Saline and Tween 20). Using the calibration curves generated and employing a single level of cross reactants, these were used to determine the cross-reactivity of the immunoassays with these substances.

[3] = test system: antibodies provided in European patent application number 2,487,155; details: antibodies of EP 2,487,155; cited from earlier work
[4] = molecular target: CB1 receptor (Homo sapiens, UniProt P21554); details: CB1 versus CB2; cited from earlier work
[5] = Table 2, cross-reactant at 100 ng/ml (single level)
[6] = Table 2, cross-reactant tested at 100 ng/ml
[7] = Table 2, cross-reactant tested at 100 ng/ml, relative to UR-144 N-pentanoic acid
[8] = Table 1, B = absorbance at 450 nm at x ng/ml standard, B0 at 0 ng/ml, second bleed
[9] = Table 1, CR based on 100% for UR-144 N-pentanoic acid
[10] = Table 1, standard concentration which produces 50% B/B0, second bleed

Chain of CB1 receptor (P21554 whole entry): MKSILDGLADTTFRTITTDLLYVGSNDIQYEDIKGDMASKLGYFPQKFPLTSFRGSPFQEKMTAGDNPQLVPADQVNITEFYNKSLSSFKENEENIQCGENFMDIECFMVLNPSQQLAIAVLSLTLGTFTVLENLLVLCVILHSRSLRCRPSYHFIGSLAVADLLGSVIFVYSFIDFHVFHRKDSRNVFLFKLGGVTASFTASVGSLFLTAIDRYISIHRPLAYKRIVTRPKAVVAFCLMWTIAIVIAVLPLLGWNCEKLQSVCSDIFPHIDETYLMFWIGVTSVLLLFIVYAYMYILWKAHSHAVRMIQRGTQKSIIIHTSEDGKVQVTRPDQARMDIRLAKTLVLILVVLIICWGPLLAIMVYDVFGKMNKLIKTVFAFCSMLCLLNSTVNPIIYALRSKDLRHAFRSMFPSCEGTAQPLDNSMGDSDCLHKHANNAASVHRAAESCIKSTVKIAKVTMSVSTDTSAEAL

Compound: CCCCCn1cc(C(=O)c2ccc(C)c3ccccc23)c2ccccc21 [JWH-122]
- Concentration of compounds that elicit a negative response [1]: 100 ng/mL
- % B/BO [2, 5]: 97.01%
- IC50 [2, 6]: >0.1 µg/mL
- % Cross-reactivity (CR) [2, 7]: <3.0%

Compound: O=C(c1cccc2ccccc12)c1cn(CCN2CCOCC2)c2ccccc12 [JWH-200]
- Concentration of compounds that elicit a negative response [1]: 100 ng/mL
- % B/BO [2, 5]: 86.38%
- IC50 [2, 6]: >0.1 µg/mL
- % Cross-reactivity (CR) [2, 7]: <3.0%

Compound: CCCCCn1cc(C(=O)Cc2ccccc2OC)c2ccccc21 [JWH-250]
- Concentration of compounds that elicit a negative response [1]: 100 ng/mL
- % B/BO [2, 5]: 85.90%
- IC50 [2, 6]: >0.1 µg/mL
- % Cross-reactivity (CR) [2, 7]: <3.0%

Compound: CCCCCn1cc(C(=O)c2ccc(Cl)c3ccccc23)c2ccccc21 [JWH-398]
- Concentration of compounds that elicit a negative response [1]: 100 ng/mL
- % B/BO [2, 5]: 88.86%
- IC50 [2, 6]: >0.1 µg/mL
- % Cross-reactivity (CR) [2, 7]: <3.0%

Compound: CCCCCn1cc(C(=O)c2ccc(OC)cc2)c2ccccc21 [RCS 4]
- Concentration of compounds that elicit a negative response [1]: 100 ng/mL
- % B/BO [2, 5]: 80.02%
- IC50 [2, 6]: >0.1 µg/mL
- % Cross-reactivity (CR) [2, 7]: <3.0%

Compound: COc1ccccc1CC(=O)c1cn(CCC2CCCCC2)c2ccccc12 [RCS 8]
- Concentration of compounds that elicit a negative response [1]: 100 ng/mL
- % B/BO [2, 5]: 88.15%
- IC50 [2, 6]: >0.1 µg/mL
- % Cross-reactivity (CR) [2, 7]: <3.0%

Compound: CC1(C)C(C(=O)c2cn(CCCCC(=O)O)c3ccccc23)C1(C)C [UR-144 N-pentanoic acid]
- % Cross-Reactivity [1]: 100%
- % B/BO [2, 8]: 16.8%
- % Cross-reactivity (CR) [2, 9]: 100%
- IC50 [2, 10]: 0.003484 µg/mL

Compound: CC1(C)C(C(=O)c2cn(CCCCCO)c3ccccc23)C1(C)C [UR-144 N-pentanol]
- % Cross-Reactivity [1]: 110%
- % B/BO [2, 8]: 13.0%
- % Cross-reactivity (CR) [2, 9]: 109.2%
- IC50 [2, 10]: 0.003191 µg/mL

Compound: CC1(C)C(C(=O)c2c[nH]c3ccccc23)C1(C)C [UR-144 desalkyl]
- % Cross-Reactivity [1]: 13%
- % B/BO [2, 8]: 38.5%
- % Cross-reactivity (CR) [2, 9]: 18.1%
- IC50 [2, 10]: 0.019207 µg/mL

Compound: CCCCCn1cc(C(=O)C2C(C)(C)C2(C)C)c2ccccc21 [UR-144, (1-pentyl-1H-Indol-3-yl)(2,2,3,3-tetramethylcyclopropyl) methanone]
- % Cross-Reactivity [1]: 19%
- cross-reactivity (in words) [3]: no significant cross-reactivity
- % B/BO [2, 8]: 40.5%
- % Cross-reactivity (CR) [2, 9]: 15.3%
- IC50 [2, 10]: 0.022815 µg/mL
- lower affinity for the CB1 receptor than for CB2 [4]: 83 ×

Compound: CC1(C)C(C(=O)c2cn(CCCCCF)c3ccccc23)C1(C)C [XLR-11, (1-(5-fluoropentyl)-1H-Indol-3-yl)(2,2,3,3-tetramethylcyclopropyl) methanone]
- % Cross-Reactivity [1]: 29%
- % B/BO [2, 8]: 24.0%
- % Cross-reactivity (CR) [2, 9]: 36.9%
- IC50 [2, 10]: 0.009454 µg/mL
